According to patent US20110039921A1 (priority 2007, published 2011):
pIC50: −log10 of the molar value. Where two headings read alike, the source gives them in different places.

Key:
[1] = system: A549: the human lung adenocarcinoma cell strain; assay: cells; type: cell-based; details: for IC50: read-out: IC50(M) A549
Procedure: (§1) Experiment 1. Cytotoxicity Screening Assay at Cell Level of Compounds of this Invention
(§2) Tumor cells at log phase were incubated on 96-well plates at a density of 1˜1.2×10^4 cells/ml, 100 μl/well. 24 h later, treatment cells were exposed to the tested agents at different concentrations. Each tested agents had 4˜5 doses, and each dose had at least 3 parallel wells. Control cells were exposed to solvents in the same volume with treat agents. Cells were cultured at 37° C. in a cell incubator with 5% CO2 and 95% air atmosphere. After 4 days of culture, the incubation medium was removed, then 200 μl 0.2% MTT (prepared by RPMI 1640) was added to each well and the plates were incubated at 37° C. for 4 hours. The supernatant was discarded and dissolved the resulting formazen product with 200 μl DMSO in each well. The absorbance at a reference wavelength of 450 nm and a test wavelength of 570 nm was read on a microplate reader after tenderly shaking. Calculated drug inhibitory rate using the following equation and IC50, taking solvent exposure tumor cells as control cells.

[2] = system: A549/Taxol: the taxol-resistant substrain of A549; assay: cells; type: cell-based, human; details: for IC50: read-out: IC50(M) A549/Taxol
Procedure: as §1, §2

[3] = system: KB/V: the vincristine-resistant substrain of KB; assay: cells; type: cell-based, human; details: read-out: IC50(M) KB/V
Procedure: as §1, §2

[4] = system: KB: the human oral epithelium cancer cell strain; assay: cells; type: cell-based; details: for IC50: read-out: IC50(M) KB
Procedure: as §1, §2

[5] = system: HCT-8; assay: MTT cytotoxicity assay, HCT-8 cells; type: cell-based; details: Homo sapiens, HCT-8, Table 2, read-out: IC50 (mol/L) HCT-8
Procedure: as §1, §2

[6] = system: human mammary adenocarcinoma cell strain MCF-7; assay: MTT cytotoxicity assay, MCF-7 cells; type: cell-based; details: Homo sapiens, MCF7, Table 2, read-out: IC50 (mol/L) MCF-7
Procedure: as §1, §2

[7] = system: MCF-7/D: adriamycin-resistant subline of the human mammary adenocarcinoma cell strain MCF-7; assay: MTT cytotoxicity assay, MCF-7/D cells; type: cell-based; details: Homo sapiens, MCF7, Table 2, read-out: IC50 (mol/L) MCF-7/D
Procedure: as §1, §2

[8] = system: BGC-823; assay: MTT cytotoxicity assay, BGC-823 cells; type: cell-based, human; details: Homo sapiens, BGC-823, Table 2, read-out: IC50 (mol/L) BGC-823
Procedure: as §1, §2

[9] = system: BGC-803; assay: MTT cytotoxicity assay, BGC-803 cells; type: cell-based; details: BGC803, Table 2, read-out: IC50 (mol/L) BGC-803
Procedure: as §1, §2

[10] = system: human ovarian cancer A2780-nude mice-xenograft tumor; assay: Growth inhibition on A2780-nude mice-xenograft tumor
Text: (§3) Genera: BALB/c (nu-nu) nude mice
(§4) After one-week accommodation, animals were given subcutaneous implantation of the human lung adenocarcinoma A549 or the human ovarian cancer A2780 or the human gastric carcinoma BGC-823 cells. Animals were grouped randomly (d0) when the tumors reached 100-300 mm^3. […] Animal weights and tumor measurements were taken every […] and recorded. At the end of the study (d30 or d35), nude mice were euthanized and weighed. After the animals were sacrificed, tumor tissue was cut and weighed. Tumor volume was determined using the following equation: […]

[11] = system: human gastric carcinoma BGC-823 nude mice-xenograft tumor; assay: Growth inhibition on BGC-823-nude mice-xenograft tumor
Text: as §3, §4

[12] = system: human lung adenocarcinoma A549-nude mice-xenograft tumor; assay: Growth inhibition on A549-nude mice-xenograft tumor
Text: as §3, §4

[13] = system: Lewis lung cancer; assay: Inhibitory activity on mice Lewis lung cancer
[14] = Table 1, MTT, 4 days of culture

**Q.** Which IC50 [1, 14] does the source give for `C/C=C(\C)C(=O)N[C@@H](c1ccccc1)[C@@H](O)C(=O)O[C@H]1C[C@@]2(O)[C@@H](OC(=O)c3ccccc3)[C@@H]3[C@]4(OC(C)=O)CO[C@@H]4C[C@H](O)[C@@]3(C)C(=O)[C@H](O)C(=C1C)C2(C)C` [Example 1, 10-deacetyl-cephalomannine] here?
**A.** > 1e-06 M

**Q.** And the IC50 [2, 14]?
**A.** > 1e-06 M

**Q.** What about the IC50 [3, 14] of the same compound?
**A.** > 1e-06 M

**Q.** Which IC50 [1, 14] does the source give for `C/C=C(\C)C(=O)N[C@@H](c1ccccc1)[C@@H](O)C(=O)O[C@H]1C[C@@]2(O)[C@@H](OC(=O)c3cccc(N=[N+]=[N-])c3)[C@@H]3[C@]4(OC(C)=O)CO[C@@H]4C[C@H](O)[C@@]3(C)C(=O)[C@H](OC(=O)CC)C(=C1C)C2(C)C` [Example 2, 2-(3-azidobenzoyl)-10-propionyl-cephalomannine] here?
**A.** 8.79e-08 M

**Q.** And the IC50 [2, 14]?
**A.** > 1e-06 M

**Q.** And the IC50 [3, 14]?
**A.** 1.53e-07 M

**Q.** How did the IC50 [1, 14] turn out when `CC=C(C)C(=O)NC(c1ccccc1)C(O)C(=O)OC1CC2(O)C(OC(=O)c3cccc(OC)c3)C3C4(OC(C)=O)COC4CC(O)C3(C)C(=O)C(OC(=O)CC)C(=C1C)C2(C)C` (stereo not drawn) [Example 3, 2-(3-methoxybenzoyl)-10-propionyl-cephalomannine] was run?
**A.** 7.04e-08 M

**Q.** And the IC50 [2, 14]?
**A.** > 1e-06 M

**Q.** What about the IC50 [3, 14] of the same compound?
**A.** 8.02e-07 M

**Q.** How did the IC50 [1, 14] turn out when `C/C=C(\C)C(=O)N[C@@H](c1ccccc1)[C@@H](O)C(=O)O[C@H]1C[C@@]2(O)[C@@H](OC(=O)c3ccccc3)[C@@H]3[C@]4(OC(C)=O)CO[C@@H]4C[C@H](O)[C@@]3(C)C(=O)[C@H](OC(=O)CC)C(=C1C)C2(C)C` [Example 4, 10-propionyl-cephalomannine] was run?
**A.** 2.01e-07 M

**Q.** What about the IC50 [4, 14] of the same compound?
**A.** 9.74e-09 M

**Q.** What about the IC50 [2, 14] of the same compound?
**A.** 4.21e-07 M

**Q.** And the IC50 [3, 14]?
**A.** 4.85e-07 M

**Q.** What does the source list for `C/C=C(\C)C(=O)N[C@@H](c1ccccc1)[C@@H](O)C(=O)O[C@H]1C[C@@]2(O)[C@@H](OC(=O)c3cccc(N=[N+]=[N-])c3)[C@@H]3[C@]4(OC(C)=O)CO[C@@H]4C[C@H](O)[C@@]3(C)C(=O)[C@H](OC(C)=O)C(=C1C)C2(C)C` [Example 5, 2-(3-azidobenzoyl)-cephalomannine]?
**A.** IC50 [1, 14]: > 1e-06 M; IC50 [4, 14]: 5.9e-10 M; IC50 [2, 14]: > 1e-06 M; IC50 [3, 14]: 2.23e-07 M

**Q.** `C/C=C(\C)C(=O)N[C@@H](c1ccccc1)[C@@H](O)C(=O)O[C@H]1C[C@@]2(O)[C@@H](OC(=O)c3cccc(OC)c3)[C@@H]3[C@]4(OC(C)=O)CO[C@@H]4C[C@H](O)[C@@]3(C)C(=O)[C@H](OC(C)=O)C(=C1C)C2(C)C` [Example 6, 2-(3-methoxybenzoyl)-cephalomannine] was tested. Which IC50 [1, 14] did it give?
**A.** 2.1e-07 M

**Q.** And the IC50 [4, 14]?
**A.** 1.44e-07 M

**Q.** And the IC50 [2, 14]?
**A.** > 1e-06 M

**Q.** And the IC50 [3, 14]?
**A.** 8.94e-07 M

**Q.** How did the IC50 [1, 14] turn out when `CC=C(C)C(=O)NC(c1ccccc1)C(O)C(=O)OC1CC2(O)C(OC(=O)c3cccc(OC)c3)C3C4(OC(C)=O)COC4CC(OC(=O)CC)C3(C)C(=O)C(O)C(=C1C)C2(C)C` (stereo not drawn) [Example 7, 2-(3-methoxybenzoyl)-7-propionyl-10-deacetyl-cephalomannine] was run?
**A.** 2.51e-07 M

**Q.** And the IC50 [4, 14]?
**A.** 8.78e-09 M

**Q.** What about the IC50 [2, 14] of the same compound?
**A.** > 1e-06 M

**Q.** What about the IC50 [3, 14] of the same compound?
**A.** 2.79e-07 M

**Q.** What does the source list for `C/C=C(\C)C(=O)N[C@@H](c1ccccc1)[C@@H](O)C(=O)O[C@H]1C[C@@]2(O)[C@@H](OC(=O)c3ccccc3)[C@@H]3[C@]4(OC(C)=O)CO[C@@H]4C[C@H](O)[C@@]3(C)C(=O)[C@H](OC(C)=O)C(=C1C)C2(C)C` [cephalomannine, reference compound]?
**A.** IC50 ([1]; Homo sapiens, A549, 96 h): 1.33e-07 M; IC50 ([4]; Homo sapiens, KB, 96 h): 5.18e-09 M; IC50 ([2]; Homo sapiens, A549/Taxol, 96 h): > 1e-06 M; IC50 ([3]; Homo sapiens, KBV, 96 h): 1e-06 M

**Q.** For `CC(=O)O[C@H]1C(=O)[C@@]2(C)[C@H]([C@H](OC(=O)c3ccccc3)[C@]3(O)C[C@H](OC(=O)[C@H](O)[C@@H](NC(=O)c4ccccc4)c4ccccc4)C(C)=C1C3(C)C)[C@]1(OC(C)=O)CO[C@@H]1C[C@@H]2O` [taxol, paclitaxel, reference compound], which IC50 ([1]; Homo sapiens, A549, 96 h, Table 1, MTT, 4 days of culture) is on record?
**A.** 2.32e-07 M

**Q.** What about the pIC50 ([1]; Homo sapiens, A549, Table 2, MTT assay, read-out: IC50 (mol/L) A549) of the same compound?
**A.** 8.28

**Q.** What about the IC50 ([4]; Homo sapiens, KB, 96 h, Table 1, MTT, 4 days of culture) of the same compound?
**A.** 8.66e-09 M

**Q.** And the pIC50 ([4]; Homo sapiens, KB, Table 2, MTT assay, read-out: IC50 (mol/L) KB)?
**A.** 8.74

**Q.** What about the IC50 ([2]; Homo sapiens, A549/Taxol, 96 h, Table 1, MTT, 4 days of culture) of the same compound?
**A.** > 1e-06 M

**Q.** What about the pIC50 ([2]; Homo sapiens, A549, Table 2, MTT assay, read-out: IC50 (mol/L) A549/T) of the same compound?
**A.** 7.59

**Q.** And the IC50 ([3]; Homo sapiens, KBV, 96 h, Table 1, MTT, 4 days of culture)?
**A.** 9.59e-07 M

**Q.** What about the pIC50 [5] of the same compound?
**A.** 9.14

**Q.** And the pIC50 [6]?
**A.** 9.39

**Q.** What about the pIC50 [7] of the same compound?
**A.** 6.48

**Q.** And the pIC50 [8]?
**A.** 8.20

**Q.** What about the pIC50 [9] of the same compound?
**A.** 8.60

**Q.** And the RTV ([10]; 30 × 4 mg/kg i.p.)?
**A.** 4.4

**Q.** What about the “T/C (%)” value ([10]; 30 × 4 mg/kg i.p.) of the same compound?
**A.** 45.4%

**Q.** What about the “Tv x ± SD d0” value ([10]; 30 × 4 mg/kg i.p., d0 (first administration)) of the same compound?
**A.** 137.9 ± 21.0

**Q.** And the “Tv x ± SD dn” value ([10]; 30 × 4 mg/kg i.p., dn: 30 days after the first administration)?
**A.** 604.8 ± 525.0

**Q.** And the “Body weight (g) end” value ([10]; 30 × 4 mg/kg i.p., end)?
**A.** 23.3 g

**Q.** What about the “Body weight (g) initial” value ([10]; 30 × 4 mg/kg i.p., initial) of the same compound?
**A.** 22.7 g

**Q.** And the “inhibition of tumor growth, conclusion in words” value (from here on “inhibition of tumor growth”) ([10]; A2780 nude mice-xenograft tumor, comparison with taxol)?
**A.** can inhibit the growth

**Q.** And the RTV ([11]; 30 × 3 mg/kg i.p.)?
**A.** 0.66

**Q.** And the “T/C (%)” value ([11]; 30 × 3 mg/kg i.p.)?
**A.** 2.41%

**Q.** What about the “Tv x ± SD d0” value ([11]; 30 × 3 mg/kg i.p., d0) of the same compound?
**A.** 98.8 ± 47.35

**Q.** What about the “Tv x ± SD dn” value ([11]; 30 × 3 mg/kg i.p., dn 30 days after the first administration) of the same compound?
**A.** 104.9 ± 144.9

**Q.** What about the “Body weight (g) end” value ([11]; 30 × 3 mg/kg i.p., end) of the same compound?
**A.** 23.9 g

**Q.** And the “Body weight (g) initial” value ([11]; 30 × 3 mg/kg i.p., initial)?
**A.** 25.2 g

**Q.** And the “inhibition of tumor growth” value ([11]; BGC-823 nude mice-xenograft tumor, comparison with taxol)?
**A.** can inhibit the growth

**Q.** What about the RTV ([12]; 30 × 3 mg/kg) of the same compound?
**A.** 4.6

**Q.** And the “T/C (%)” value ([12]; 30 × 3 mg/kg)?
**A.** 38.9%

**Q.** What about the “Body weight (g) end” value ([12]; 30 × 3 mg/kg, end) of the same compound?
**A.** 24.3 g

**Q.** And the “Tv x ± SD end” value ([12]; 30 × 3 mg/kg, end)?
**A.** 2152 ± 474

**Q.** What about the “Body weight (g) initial” value ([12]; 30 × 3 mg/kg, initial) of the same compound?
**A.** 22.0 g

**Q.** What about the “inhibition of tumor growth” value ([12]; A549 nude mice-xenograft tumor, comparison with taxol) of the same compound?
**A.** can inhibit the growth

**Q.** What about the “Inhibition (%)” value ([13]; 10 × 6 mg/kg) of the same compound?
**A.** 31.64%

**Q.** And the “Tumor weight (g) Average” value ([13]; 10 × 6 mg/kg)?
**A.** 1.96 g

**Q.** And the “Body weight (g) end” value ([13]; 10 × 6 mg/kg, end)?
**A.** 19.4 g

**Q.** And the “Body weight (g) initial” value ([13]; 10 × 6 mg/kg, initial)?
**A.** 19.7 g

**Q.** And the “inhibition of tumor growth” value ([13]; Lewis lung cancer, comparison with taxol)?
**A.** can inhibit the growth
